The nature of series [1]: Distribution of compounds in major organs after single gavage administration. The class given is in vivo, Sprague Dawley rats. The conditions noted are these: gavage 5 mg/kg single dose, 1 h and 4 h, SD rats, result in words (FIG. 2). The method, then:
0.25-0.3 ml of Systemic blood (jugular vein) was taken at each blood collection point to be added into an EDTA-K2 anticoagulant tube, uniform mixing was performed by gentle inversion, and the obtained mixture was stored on crushed ice for transport. Collection plan: PO blood collection point: 1 h and 4 h after administration. Animals were euthanized, tissues and organs were taken, and livers (0.3-0.5 g of liver was taken at a fixed position of a large lobe of liver), kidneys, and hearts were weighed, placed in 5 ml centrifuge tubes, quick-frozen on dry ice, and cryopreserved at -20°C.
A solvent (methanol:acetonitrile:water=25:25:50) was added for grinding and homogenization, and this process was performed rapidly by using a tissue grinder.
A solvent was added to the liver to 3 ml, one large steel ball and one small steel ball were added, and grinding was performed at 50 Hz for 60 s. Vortexing was performed for uniform mixing, and centrifugation was performed at 8000 rpm for 5 min. 0.3 ml of a supernatant was taken, a solvent was added until 3 ml, vortexing was performed for uniform mixing, and centrifugation was performed at 8000 rpm for 5 min. 0.1 ml of a supernatant was taken, 0.2 ml of acetonitrile was added, vortexing was performed for 30 s, and centrifugation was performed at 10000 rpm for 5 min. A supernatant was taken and sent for testing to analyze the drug content. […]

A further series addresses THRα (Homo sapiens, UniProt P10827). Put plainly: HTRF test of agonist-induced SRC3-2 coactivator peptide recruitment to THRα-LBD. The class given is biochemical. On the procedure: 1. Experiment of binding of compounds to THRβ and THRα
Test principle: The effect of test compounds on THRβ and THRα was tested by using a method of HTRF. An MAb Anti GST-Eu cryptate antibody binds to GST-tagged THRα-LBD (or THRβ-LBD), while Streptavidin-XL665 binds to a biotin-labeled SRC3-2 coactivator peptide. […] At the same time, the resulting decrease in the distance between XL665-labeled SRC3-2 and an Eu-anti-GST antibody increases a THRFRET signal. The agonistic capacity at this target was assessed by the effect of compounds on the activity of THRα-LBD (THRβ-LBD) at different concentrations.
• (1) a 1×reaction solution was prepared. • (2) Preparation of compounds: the compound test starting concentration was 20 µM, 3-fold dilution was performed, 10 concentrations were set, and duplicate testing was set for each concentration. 100-fold dilution was performed in a 384-well Source plate to a corresponding solution with a final concentration, and then 200 nL of the solution was transferred to a 384-well reaction plate with Echo550 to be tested. 200 nL of 100% DMSO and a test article were respectively transferred to Min and Max wells. • (3) A 2×protein solution was prepared from the 1×reaction solution. • (4) A 4×SRC3-2 solution was prepared from the 1×reaction solution. • (5) A mixed solution of 4×GST-Eu cryptate and XL665 was prepared from the 1×reaction solution. • (6) 10 µl of the 2×protein solution was added to each well of the reaction plate, centrifugation was performed at 1000 rpm for 1 min, and incubation was performed at room temperature for 30 min. • (7) 5 µl of the 4×SRC3-2 solution was added to each well of the reaction plate, and centrifugation was performed at 1000 rpm for 1 min. • (8) 5 µL of the mixed solution of 4×GST-Eu cryptate and XL665 was added to each well of the reaction plate, centrifugation was performed at 1000 rpm for 1 min, and incubation was performed at 25°C. • (9) A fluorescence signal was read by using EnVision.
THRα test procedures were the same as above.

The nature of series [2]: In vivo pharmacokinetic study of elimination phase half-life after single IV bolus. The conditions noted are these: rat, blood, iv, I.V bolus, 5 mg/kg, rats, read-out: Elimination phase half-life (T1/2) (converted). The arrangement: species or system Sprague Dawley rats. The method, then: Blood samples were collected from animals (IV group) before administration and at time points of 0.083 h, 0.25 h, 0.5 h, 1 h, 2 h, 4 h, 8 h, and 24 h after the end of administration. • Sample treatment: prior to blood collection, a centrifuge tube with 10 µl of EDTA-K2 and 1.2 mL of 50% acetonitrile-DMSO (a volume ratio of whole blood to 50% acetonitrile-DMSO is approximately 1:4) was placed in an ice box filled with crushed ice. The collected blood was added to the centrifuge tube, vortexed for at least 5 min, and then temporarily stored and transported in the ice box filled with crushed ice; and the blood was centrifuged at 12,000 g for 10 min at 4°C, wherein centrifugation was completed within 1 h after blood collection. A whole blood supernatant after centrifugation was transferred to a newly labeled tube, and transferred to -60°C or below for storage for analytical testing.

Series [3] is described as follows: Comparison of compound metabolites by human liver microsome incubation (LC-MS/MS). In kind it is in vitro ADME. The following applies: 10 µM compound, human liver microsome 1.0 mg/mL, β-NADPH 1.0 mM, 37°C, 60 min. On the procedure: The purpose of this experiment was to evaluate the comparison of the content of major metabolites of human liver microsome incubated compounds.
Sample treatment: a sample was precipitated with acetonitrile (ACN) containing 0.1% formic acid in a ratio of 1:2, and further centrifuged. A supernatant was dried with a nitrogen flow. A residue was reconstituted in […] of 10% ACN and 90% H2O containing 0.1% formic acid. […] of the reconstituted material was injected into an LC-MS/MS system for analysis.
On the technique in general: Liver microsomes are vesicles of endoplasmic reticulum, rich in cytochrome P450 enzymes.

This note sets out measurements from EP4763841A1, “PYRIDAZINONE COMPOUND AND USE THEREOF” (Xi'an Xintong Pharmaceutical Research Co., Ltd., priority 2023, dated 2025).

“Also recorded” adds a separate entry of the source. Bounds are passed on as bounds.

THRα, sequence (P10827 148-410 isoform P10827-2 limits assumed, other chains not shown): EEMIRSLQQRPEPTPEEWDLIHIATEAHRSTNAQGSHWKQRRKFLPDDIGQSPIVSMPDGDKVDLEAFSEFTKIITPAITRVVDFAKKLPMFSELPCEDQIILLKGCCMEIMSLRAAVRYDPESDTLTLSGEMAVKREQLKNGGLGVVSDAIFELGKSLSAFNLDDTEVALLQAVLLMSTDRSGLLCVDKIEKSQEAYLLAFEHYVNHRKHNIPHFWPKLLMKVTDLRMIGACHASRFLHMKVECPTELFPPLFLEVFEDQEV

One may read the EC50 as the concentration needed to bring the measured effect to its halfway point. High values mean lower potency in that assay, low ones higher potency in that assay. For the compound `[2H]C([2H])([2H])C(c1c(C)c(Oc2c(Cl)cc(-n3nc(CF)c(=O)[nH]c3=O)cc2Cl)n[nH]c1=O)C([2H])([2H])[2H]` [Compound 6], the liver distribution entry in series [1] is “significant liver distribution advantage over Resmetirom and the compound X1; also recorded: significant liver distribution advantage over Resmetirom and a compound X1”. Moreover, the EC50 on THRα (HTRF, starting concentration 20 µM, 3-fold dilution, 10 concentrations, duplicate) was above 5 µM. Also, the “agonistic activity on THRα” value at THRα (result in words) is listed as “weak agonistic activity on THRα”. Besides, the half-life in series [2] is 7.8 h. In addition, the entries for the “Monooxidized metabolite percent content (%)” value in series [3] and in series [3] (listed as compound 6) were 3.0% and 3%, respectively.
